Laboratory results as given in ChEMBL document CHEMBL1150887, “Isolation, identification, and antioxidant activity of three stilbene glucosides newly extracted from vitis vinifera cell cultures” (J Nat Prod, 1998).

Assays:
[1] = Antioxidant activity against cupric ion-induced lipid peroxidation in human LDL by TBA assay; format: functional
[2] = tested on: Radical scavenging activity; assay: Antioxidant activity assessed as DPPH radical scavenging activity; format: functional

IC50 [1] [µM]	IC50 [2] [µM]	Compound
2.4	72	Oc1ccc(/C=C/c2cc(O)cc(O)c2)cc1 [RESVERATROL]
4.7	10.1	Cc1c(C)c2c(c(C)c1O)CCC(C)(C(=O)O)O2 (stereo not given) [TROLOX]
2.5	29	OC[C@H]1O[C@@H](Oc2cc(O)cc(/C=C\c3ccc(O)c(O)c3)c2)[C@H](O)[C@@H](O)[C@@H]1O [Z-ASTRINGIN]
18	95	Oc1ccc(/C=C\c2cc(O)cc(O)c2)cc1 [CIS-RESVERATROL]
19.1	198	OC[C@H]1O[C@@H](Oc2cc(O)cc(/C=C/c3ccc(O)cc3)c2)[C@H](O)[C@@H](O)[C@@H]1O [PICEID]
1.8	28	Oc1cc(O)cc(/C=C/c2ccc(O)c(O)c2)c1 [PICEATANNOL]
16.8	142	OC[C@H]1O[C@@H](Oc2cc(O)cc(/C=C\c3ccc(O)cc3)c2)[C@H](O)[C@@H](O)[C@@H]1O [Z-PICEID]
3	30.2	OC[C@H]1O[C@@H](Oc2cc(O)cc(/C=C/c3ccc(O)c(O)c3)c2)[C@H](O)[C@@H](O)[C@@H]1O

Compound	IC50 [1] [µM]	IC50 [2] [µM]
OC[C@H]1O[C@@H](Oc2ccc(/C=C\c3cc(O)cc(O)c3)cc2O)[C@H](O)[C@@H](O)[C@@H]1O [Z-RESVERATROLOSIDE]	150	> 1000
OC[C@H]1O[C@@H](Oc2ccc(/C=C/c3cc(O)cc(O)c3)cc2O)[C@H](O)[C@@H](O)[C@@H]1O [E-RESVERATROLOSIDE]	100	1000
